# According to patent publication US8143307B2, “Benzothiophen-2-carbonylguanidine derivatives, preparation thereof, and pharmaceutical composition containing the same” (Korea Research Institute of Chemical Technology, priority 2004, dated 2012):
# pIC50: −log10 of the molar value.
# What was measured:
# [1] = system: in vivo ischemic rat brain model; experiment: Cerebroprotective effect on in vivo ischemic rat brain model; conditions: for % Infarct size/hemisphere / TUNEL-Positive Cells (% Right/Left Hemisphere): 60 min ischemia, 24 hours reperfusion
# Procedure: In order to examine whether the benzothiophen-2-carbonylguanidine derivatives of the present invention protect the brain from ischemia-reperfusion-induced cerebral injury, the following experiment was conducted.
# Male Sparague-Dawley Rats (350±50 g, Samyook Experimental Animal Lab) were anesthetized and intraperitoneally injected with heparine. After ischemia by the occlusion of the right carotid artery for 60 min, reperfusion was performed for 24 hours. Compounds or a vehicle was intravenously injected at 20 min before the occlusion.
# After the perfusion for 24 hours, rats were anesthetized with a fatal dose of sodium pentobarbital. The brains were carefully isolated and transected at intervals of 2 mm. The coronary slices thus obtained were stained at 37° C. for 20 min using a 2% 2,3,5-triphenyltetrazolium chloride solution. Stained slices were analyzed for % necrosis area relative to total brain area using an image analyzer (BAS image 1500). Also, the cerebroprotective activity of the compounds against brain edema was expressed as % volume of the left hemisphere relative to that of the ischemic right hemisphere.
# [2] = system: isolated ischemic rat heart; experiment: Cardioprotective effect in isolated ischemic rat heart model (Langendorff); conditions: 10 μM, 30 min global ischemia, 30 min reperfusion
# Procedure: Male rats (300 450 g, the Korea Research Institute of Chemical Technology, Experimental Animal Lab) were anesthetized by intraperitoneal injection with sodium pentobarbital at a dose of 100 mg/kg and were intravenously administered with heparine at a dose of 1000 U/kg, followed by the excision of the heart. In detail, a tracheotomy was performed and a tracheal cannula (PE 240) was inserted into the trachea for subsequent artificial ventilation with room air using a rodent ventilator. […] A catheter tip manometer connected to a latex balloon filled with a mixture of ethanol and distilled water (1:1 v/v) was inserted via an incision in the left atrium into the left ventricle, and the intraventricular pressure thereof transmitted to the latex balloon was measured isovolumetrically with a transducer and recorded on a recording system (Linearcorder mark 8 WR 3500) with the aid of an amplifier (Plugsys bridge amplifier). After stabilizing the heart for 15 min, the balloon volume was adjusted to create a left ventricular end-diastolic pressure (LVEDP) of 5 mmHg during the initial baseline period. The volume of the balloon was maintained until the end of the experiment. Baseline heart contraction function, spontaneous heart rate (HR) and coronary flow (CF) were determined from the left ventricular contraction interval. The left ventricular developed pressure (LVDP), which is regarded as an index of contractile function of the isolated heart, was calculated by subtracting left ventricular end-diastolic pressure (LVEDP) from left ventricular peak systolic pressure (LVSP). In contrast to the heart in the body, the Langendorff heart cannot be measured for cardiac output and thus, RPP (rate-pressure product), which is an important indirect indicator for cardiac performance, was calculated by multiplying heart rate (HR) by LVDP. Throughout the experiment, the temperature of the heart was maintained constant by […] in a 37° C. physiological solution to which 95% O2/5% CO2 was continuously supplied. The heart thus stabilized was perfursed for 10 min with a solution of the compounds of the invention or control drugs in DMSO (dimethylsulfoxide) diluted with HBS (final DMSO conc. 0.04%), or with the solvent only (a negative control; 0.04% DMSO) and then measured again for contractile function, heart rate (HR) and coronary flow (CF). The supply of perfusates was completely stopped for 30 min in order to induce global ischemia in the heart, followed by reperfusion for 30 min. The indices (LVDP, HR, LVEDP, and CF) were measured again. After the reperfusion, the total level of lactate dehydrogenase (LDH) in the reperfusates was measured using a kit and taken as an index of ischemic myocardial injury. A negative control group was treated with the solvent only while cariporide was used as a positive control.
# Human NHE-1 = molecular target: T1, Human NHE-1 (Homo sapiens, UniProt P19634); experiment: Inhibitory effect on NHE-1 in PS120/NHE-1 cells (recovery from intracellular acidosis, BCECF fluorescence); format: cell-based; conditions: human NHE-1 expressed PS120 cells; concentration at which recovery from intracellular acidosis was 50% inhibited
# T1 construct: expressed in transfected cells; host or cells: CCL39-derived PS120 cells (PS120/NHE-1)
# T1 sequence (P19634 whole entry): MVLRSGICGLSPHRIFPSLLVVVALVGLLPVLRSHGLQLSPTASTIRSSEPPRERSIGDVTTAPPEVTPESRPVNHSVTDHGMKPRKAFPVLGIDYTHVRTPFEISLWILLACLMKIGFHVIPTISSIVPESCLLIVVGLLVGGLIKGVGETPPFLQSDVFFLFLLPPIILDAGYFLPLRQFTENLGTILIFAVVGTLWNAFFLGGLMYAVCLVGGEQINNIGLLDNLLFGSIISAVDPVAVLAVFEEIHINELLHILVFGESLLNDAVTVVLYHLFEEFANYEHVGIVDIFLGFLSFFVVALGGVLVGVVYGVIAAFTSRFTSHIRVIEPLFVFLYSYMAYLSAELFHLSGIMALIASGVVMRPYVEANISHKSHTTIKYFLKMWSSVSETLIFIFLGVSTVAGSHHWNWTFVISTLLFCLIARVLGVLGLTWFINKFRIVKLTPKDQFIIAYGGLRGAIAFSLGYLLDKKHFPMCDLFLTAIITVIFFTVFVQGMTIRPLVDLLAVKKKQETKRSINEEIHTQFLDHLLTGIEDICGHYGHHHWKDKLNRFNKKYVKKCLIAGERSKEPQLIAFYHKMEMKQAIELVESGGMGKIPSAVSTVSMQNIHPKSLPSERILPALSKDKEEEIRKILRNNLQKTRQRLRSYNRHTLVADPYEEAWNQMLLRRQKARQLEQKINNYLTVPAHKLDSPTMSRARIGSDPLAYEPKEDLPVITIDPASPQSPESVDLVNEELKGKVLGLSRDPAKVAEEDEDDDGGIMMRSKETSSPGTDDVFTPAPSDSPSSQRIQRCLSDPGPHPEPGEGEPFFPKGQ
# [3] = 0.1 mg/kg intravenous 20 min before occlusion
# [4] = 0.3 mg/kg intravenous 20 min before occlusion
compound,measurement,setting,value
"CS(=O)(=O)O.N#Cc1cccc2sc(C(=O)N=C(N)N)cc12 [Example 42, (4-Cyanobenzothiophene-2-Carbonyl)Guanidine Methanesulfonate]",% Infarct size/hemisphere,[1]; [3],21.4%
same,TUNEL-Positive Cells (% Right/Left Hemisphere),[1]; [3],111.2%
same,% Infarct size/hemisphere,[1]; [4],18.6%
same,TUNEL-Positive Cells (% Right/Left Hemisphere),[1]; [4],107.96%
same,ischemia/reperfusion-induced brain infarction and brain edema,[1]; injection doses of both 0.1 mg/kg and 0.3 mg/kg,significantly reduced
same,LDH (free LDH level upon reperfusion),[2],14.7 u/g
same,LVEDP (left ventricular end-diastolic pressure),[2],6.0 mmHg
same,pIC50,Human NHE-1,5.69
